This note sets out measurements from patent publication US10913753B2, “Thienopyridine carboxamides as ubiquitin-specific protease inhibitors” (FORMA Therapeutics, Inc., priority 2016, dated 2021).

Assay [1] has as its target USP28 (Homo sapiens (Human), UniProt Q96RU2). The experiment in a line: Ubiquitin-Rhodamine 110 Assay for USP28 Activity. The format is biochemical. As for the experimental part:
The assay was performed in a final volume of 20 μL in assay buffer containing 20 mM Tris-HCl (pH 8.0, (1M Tris-HCl, pH 8.0 solution; Corning 46-031-CM)), 2 mM CaCl2 (1M Calcium Chloride solution; Sigma #21114) 2 mM BME (2-Mercaptoethanol; Sigma 63689-25ML -F), 0.01% Prionex (0.22 μM filtered, Sigma #G-0411), and 0.01% Triton X-100. Stock compound solutions were stored at −20° C. as 10 mM in DMSO. Up to 1 month prior to the assay, 2 mM test compounds were pre-dispensed into assay plates (Black, low volume; Corning #3820) and frozen at −20° C. Prestamped assay plates were allowed to come to room temperature on the day of the assay. For the screen, 100 nL of 2 mM was pre-dispensed for a final screening concentration of 10 μM (DMSO(fc)=0.5%). […] Plates were incubated stacked for 90 minutes at room temperature before fluorescence was read on the Envision (Excitation at 485 nm and Emission at 535 nm; Perkin Elmer) or on the PheraSTAR (Excitation at 485 nm and Emission at 535 nm; BMG Labtech).
For follow-up studies, the assay was performed in a final volume of 15 μL in assay buffer containing 20 mM Tris-HCl (pH 8.0, (1M Tris-HCl, pH 8.0 solution; Corning 46-031-CM)), 3 mM BME (2-Mercaptoethanol; Sigma 63689-25ML-F), 0.03% BGG (0.22 μM filtered, Sigma, G7516-25G), and 0.01% Triton X-100 (Sigma, T9284-10L). Nanoliter quantities of either an 8-point or 10-point, 3-fold serial dilution in DMSO was pre-dispensed into assay plates (Perkin Elmer, ProxiPlate-384 F Plus) for a final test concentration of either 25 μM to 11 nM or 25 μM to 1.3 nM, respectively. Enzyme USP28, construct USP28 (USP28-5(1-1077)-TEV-6*His; LifeSensors) concentration and incubation times were optimized for the maximal signal-to -background while maintaining initial velocity conditions at a fixed substrate concentration. The final concentration of the enzyme in the assay was 75 pM. […] 5 μL of 2× enzyme was added to assay plates (pre-stamped with compound) preincubated with USP28 for 30 minutes and then 5 μL of 2× Ub-Rh110 was added to assay plates. Plates were incubated stacked for 20 min at room temperature before 5 μL of stop solution was added (final concentration of 10 mM citric acid (Sigma, 251275-500G)). Fluorescence was read on the Envision (Excitation at 485 nm and Emission at 535 nm; Perkin Elmer) or on the PheraSTAR (Excitation at 485 nm and Emission at 535 nm; BMG Labtech).
(§1) For both the USP28 and USP25 assay formats, data were reported as percent inhibition compared with control wells based on the following equation: % inh=1-((FLU-AveLow)/(AveHigh−AveLow)) where FLU=measured Fluorescence, AveLow=average Fluorescence of no enzyme control (n=16), and AveHigh=average Fluorescence of DMSO control (n=16). IC50 values were determined by curve fitting of the standard 4 parameter logistic fitting algorithm included in the Activity Base software package: IDBS XE Designer Model205. Data is fitted using the Levenburg Marquardt algorithm.

For assay [2], the target named is USP25 (Homo sapiens (Human), UniProt Q9UHP3). The experiment in a line: Ubiquitin-Rhodamine 110 Assay for USP25 Activity. The format is biochemical. How it is done: The assay was performed in a final volume of 9 μL in assay buffer containing 20 mM Tris-HCl (pH 8.0, (1M Tris-HC1, pH 8.0 solution; Corning 46-031-CM)), 3 mM BME (2-Mercaptoethanol; Sigma 63689-25ML-F), 0.03% BGG (0.22 μM filtered, Sigma, G7516-25G), and 0.01% Triton X-100 (Sigma, T9284-10L). Nanoliter quantities of 10-point, 3-fold serial dilution in DMSO was pre-dispensed into 1536 assay plates (Corning, #3724BC) for a final test concentration of 25 μM to 1.3 nM, top to lowest dose, respectively. Enzyme USP25, construct USP25-His6, (Boston Biochem E-546). Concentration and incubation times were optimized for the maximal signal-to-background while maintaining initial velocity conditions at a fixed substrate concentration. The final concentration of the enzyme in the assay was 75 pM. […] 3 μL of 2× enzyme was added to assay plates (pre-stamped with compound) preincubated with […] for 30 minutes and then 3 μL of 2× Ub-Rh110 was added to assay plates. Plates were incubated for 45 minutes at room temperature before addition of 3 μL of stop solution (final concentration of 10 mM citric acid (Sigma, 251275-500G)). Fluorescence was read on the Envision (Excitation at 485 nm and Emission at 535 nm; Perkin Elmer) or on the PheraSTAR (Excitation at 485 nm and Emission at 535 nm; BMG Labtech).
Sequence of USP25 (Q9UHP3 whole entry): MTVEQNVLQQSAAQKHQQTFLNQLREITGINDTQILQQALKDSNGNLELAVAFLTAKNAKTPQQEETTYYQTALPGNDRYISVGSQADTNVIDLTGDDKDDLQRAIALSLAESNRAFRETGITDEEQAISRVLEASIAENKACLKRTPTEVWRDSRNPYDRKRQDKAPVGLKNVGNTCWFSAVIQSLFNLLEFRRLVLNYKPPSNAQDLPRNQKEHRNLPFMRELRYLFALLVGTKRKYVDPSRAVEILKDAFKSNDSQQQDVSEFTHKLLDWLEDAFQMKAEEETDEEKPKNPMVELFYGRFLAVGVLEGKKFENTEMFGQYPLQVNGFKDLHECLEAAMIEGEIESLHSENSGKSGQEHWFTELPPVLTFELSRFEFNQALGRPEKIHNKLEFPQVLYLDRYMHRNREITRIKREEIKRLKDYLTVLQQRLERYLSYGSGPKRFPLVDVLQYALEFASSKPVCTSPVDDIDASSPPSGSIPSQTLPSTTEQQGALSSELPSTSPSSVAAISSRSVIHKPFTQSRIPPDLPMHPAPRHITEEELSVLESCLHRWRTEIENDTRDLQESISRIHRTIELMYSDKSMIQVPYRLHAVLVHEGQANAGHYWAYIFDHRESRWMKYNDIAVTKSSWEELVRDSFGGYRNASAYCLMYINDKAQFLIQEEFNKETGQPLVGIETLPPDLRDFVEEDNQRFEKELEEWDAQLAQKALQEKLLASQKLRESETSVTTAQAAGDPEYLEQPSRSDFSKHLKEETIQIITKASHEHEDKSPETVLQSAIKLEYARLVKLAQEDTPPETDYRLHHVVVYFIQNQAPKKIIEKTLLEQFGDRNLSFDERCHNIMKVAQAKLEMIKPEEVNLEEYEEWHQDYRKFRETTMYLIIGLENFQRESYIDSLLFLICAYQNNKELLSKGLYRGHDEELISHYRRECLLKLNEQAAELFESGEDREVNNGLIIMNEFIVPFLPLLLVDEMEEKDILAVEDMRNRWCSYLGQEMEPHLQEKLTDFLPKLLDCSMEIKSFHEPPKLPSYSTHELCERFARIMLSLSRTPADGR
as §1

Sequence of USP28 (Q96RU2 whole entry): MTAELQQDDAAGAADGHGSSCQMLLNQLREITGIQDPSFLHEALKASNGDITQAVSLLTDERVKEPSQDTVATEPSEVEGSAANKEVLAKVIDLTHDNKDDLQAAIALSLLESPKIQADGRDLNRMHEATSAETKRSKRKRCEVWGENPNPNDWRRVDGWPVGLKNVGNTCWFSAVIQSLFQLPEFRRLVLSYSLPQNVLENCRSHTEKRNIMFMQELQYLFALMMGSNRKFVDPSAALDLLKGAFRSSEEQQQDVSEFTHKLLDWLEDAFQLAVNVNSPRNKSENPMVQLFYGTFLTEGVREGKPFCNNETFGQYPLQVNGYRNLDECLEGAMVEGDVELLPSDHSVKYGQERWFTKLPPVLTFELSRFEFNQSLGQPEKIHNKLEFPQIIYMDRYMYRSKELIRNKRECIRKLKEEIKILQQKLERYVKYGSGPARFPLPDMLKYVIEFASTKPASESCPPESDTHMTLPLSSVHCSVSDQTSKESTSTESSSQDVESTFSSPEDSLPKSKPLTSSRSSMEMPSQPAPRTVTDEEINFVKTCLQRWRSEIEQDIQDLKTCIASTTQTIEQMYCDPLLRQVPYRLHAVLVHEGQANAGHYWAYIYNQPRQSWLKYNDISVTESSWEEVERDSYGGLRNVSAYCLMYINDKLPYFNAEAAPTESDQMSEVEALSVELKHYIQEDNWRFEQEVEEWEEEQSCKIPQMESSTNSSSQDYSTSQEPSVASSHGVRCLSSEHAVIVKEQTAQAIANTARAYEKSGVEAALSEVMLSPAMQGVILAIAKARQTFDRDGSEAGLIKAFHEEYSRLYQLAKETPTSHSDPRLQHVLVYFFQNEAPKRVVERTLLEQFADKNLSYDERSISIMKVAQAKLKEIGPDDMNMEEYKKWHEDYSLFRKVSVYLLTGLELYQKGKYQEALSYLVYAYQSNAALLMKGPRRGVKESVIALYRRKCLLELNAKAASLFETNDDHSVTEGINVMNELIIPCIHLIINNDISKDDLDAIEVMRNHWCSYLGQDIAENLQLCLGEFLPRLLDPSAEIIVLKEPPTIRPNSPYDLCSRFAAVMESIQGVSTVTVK

What is called IC50 is the concentration needed to halve the response being measured. Low readings indicate inhibition by little substance, high ones a need for much substance. As for `Cc1nc2sc(C(=O)NC[C@@H](C)c3ccc(N4CC5CCC(C4)N5)c(F)c3)c(N)c2cc1F` (single isomer, unassigned) [Example I-107], the figures for the IC50 in assay [1] and in assay [2] were 0.2 to 2 µM and 10 to 25 µM, respectively.
As for `Cc1nc2sc(C(=O)NC[C@H](C)c3ccc(N4CC5CCC(C4)N5)c(F)c3)c(N)c2cc1F` (single isomer, unassigned) [Example I-108], the IC50 in assay [1] and in assay [2] was 0.2 to 2 µM each time.
Regarding `Cc1ccc2c(N)c(C(=O)NC[C@@H](C)c3ccc(N4CC5CCC(C4)N5)c(C#N)c3)sc2n1` (single isomer, unassigned) [Example I-109], the IC50 in assay [1] was 0.2 to 2 µM; in assay [2], 2 to 10 µM.
For `Cc1ccc2c(N)c(C(=O)NC[C@H](C)c3ccc(N4CC5CCC(C4)N5)c(C#N)c3)sc2n1` (single isomer, unassigned) [Example I-110], the IC50 is 0.2 to 2 µM in assay [1] and 2 to 10 µM in assay [2].
Taken in the same sequence, the figures for `Cc1nc2sc(C(=O)NC[C@@H](C)c3cc(F)c(N4CC5CCC(C4)N5)cc3F)c(N)c2cc1F` (single isomer, unassigned) [Example I-111] were < 0.2 µM and 0.2 to 2 µM.
Taken in the same sequence, the figures for `Cc1nc2sc(C(=O)NC[C@H](C)c3cc(F)c(N4CC5CCC(C4)N5)cc3F)c(N)c2cc1F` (single isomer, unassigned) [Example I-112] were 0.2 to 2 µM and 2 to 10 µM.
In the same order, the values of `Cc1ccc2c(N)c(C(=O)NCCc3ccc(C4CC5CCC(C4)N5)cc3)sc2n1` (single isomer, unassigned) [Example I-171, N-(4-(8-azabicyclo[3.2.1]octan-3-yl)phenethyl)-3-amino-6-methylthieno[2,3-b]pyridine-2-carboxamide] are 0.2 to 2 µM and 0.2 to 2 µM.
On to `Cc1ccc2c(N)c(C(=O)NCCc3ccc(C4CC5CCC(C4)N5)cc3)sc2n1` (single isomer, unassigned) [Example I-172, N-(4-(8-azabicyclo[3.2.1]octan-3-yl)phenethyl)-3-amino-6-methylthieno[2,3-b]pyridine-2-carboxamide], for which the IC50 in assay [1] and in assay [2] was < 0.2 µM in each case.
Consider `Cc1ccc2c(N)c(C(=O)NCCc3ccc([C@H]4CCNC4)cc3)sc2n1` (single isomer, unassigned) [Example I-180], for which the 50% inhibitory concentration (IC50) in assay [1] is < 0.2 µM; in assay [2] it was 0.2 to 2 µM.
Take `Cc1ccc2c(N)c(C(=O)NCCc3ccc([C@@H]4CCNC4)cc3)sc2n1` (single isomer, unassigned) [Example I-181]: the results for the 50% inhibitory concentration (IC50) in assay [1] and in assay [2] were < 0.2 µM and 0.2 to 2 µM, respectively.
As for `CN[C@@H]1CN(c2cc(F)c(CCNC(=O)c3sc4nc(C)ccc4c3N)cc2F)C[C@@H]1F` (single isomer, unassigned) [Example I-211], the IC50 in assay [1] lay in the range of 0.2 to 2 µM; in assay [2] it was 2 to 10 µM.
Taken in the same sequence, the figures for `CN[C@H]1CN(c2cc(F)c(CCNC(=O)c3sc4nc(C)ccc4c3N)cc2F)C[C@H]1F` (single isomer, unassigned) [Example I-212] were 0.2 to 2 µM and 0.2 to 2 µM.
With `CN[C@@H]1CN(c2cc(F)c(CCNC(=O)c3sc4nc(C)ccc4c3N)cc2F)C[C@H]1F` (single isomer, unassigned) [Example I-213], the IC50 in assay [1] and in assay [2] was 0.2 to 2 µM each time.
As for `CN[C@H]1CN(c2cc(F)c(CCNC(=O)c3sc4nc(C)ccc4c3N)cc2F)C[C@@H]1F` (single isomer, unassigned) [Example I-214], the figures for the IC50 in assay [1] and in assay [2] were 0.2 to 2 µM and 2 to 10 µM, respectively.
Turning to `Cc1ccc2c(N)c(C(=O)NCCc3ccc(N4CCC5(CCCNC5)C4)cc3)sc2n1` (single isomer, unassigned) [Example I-216], the half-maximal inhibitory concentration (IC50) in assay [1] and in assay [2] was 0.2 to 2 µM throughout.
`Cc1ccc2c(N)c(C(=O)NCCc3ccc(O[C@@H]4COC5(CNC5)C4)cc3)sc2n1` (single isomer, unassigned) [Example I-218]: the IC50 in assay [1] and in assay [2] was 0.2 to 2 µM in each case.
